Results published in ChEMBL document CHEMBL5214905 (J Med Chem, 2021).
Activity calls are given as the source filed them. The calls are words filed in the database; no cut-off is given here.

What was measured:
[1] = target: Receptor-type tyrosine-protein kinase FLT3 (Homo sapiens) (UniProt P36888); assay: Inhibition of human wildtype partial length FLT3 expressed in bacterial system at 10 uM relative to control
[2] = target: Glycogen synthase kinase-3 beta (Homo sapiens) (UniProt P49841); assay: Inhibition of human wildtype full length GSK3 beta expressed in bacterial system at 10 uM relative to control
Chain of Glycogen synthase kinase-3 beta (Homo sapiens) (P49841 whole entry, looked up): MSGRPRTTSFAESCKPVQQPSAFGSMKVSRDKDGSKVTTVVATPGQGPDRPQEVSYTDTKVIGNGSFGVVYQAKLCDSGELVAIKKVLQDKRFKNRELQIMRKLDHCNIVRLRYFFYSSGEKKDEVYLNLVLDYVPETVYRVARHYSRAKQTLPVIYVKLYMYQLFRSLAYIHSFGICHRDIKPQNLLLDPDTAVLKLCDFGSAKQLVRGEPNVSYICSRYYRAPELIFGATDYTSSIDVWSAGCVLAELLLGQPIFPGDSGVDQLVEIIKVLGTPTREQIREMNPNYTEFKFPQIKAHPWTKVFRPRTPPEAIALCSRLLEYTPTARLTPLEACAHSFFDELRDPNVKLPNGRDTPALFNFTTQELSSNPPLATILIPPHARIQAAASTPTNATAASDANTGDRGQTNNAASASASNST

[3] = test system: Mus musculus; assay: Neuroprotective activity in MPTP induced C57BL/6J mouse neurodegenerative model assessed as no change in IDO1 expression in brain striatum treated with MPTP for 7 days followed by compound administration at 30 mg/kg, po by Western blotting analysis; format: functional, organism-based
[4] = test system: Mus musculus; assay: Neuroprotective activity in MPTP induced neurodegenerative C57BL/6J mouse model assessed as decrease in tryptophan metabolite NFK in mouse substantia nigra treated with MPTP for 7 days followed by compound administration at 30 mg/kg, po by LC-MS/MS analysis; format: functional, organism-based
[5] = Volume of distribution at steady state in Sprague-Dawley rat plasma at 100 mg/kg, po measured after 0.083 to 24 hrs by HPLC analysis; format: ADME, organism-based; conditions: in vivo, time 0.083-24 hrs
[6] = test system: Mus musculus; assay: Neuroprotective activity in MPTP induced C57BL/6J mouse neurodegenerative model assessed as normal cell morphology in neuron cells treated with MPTP for 7 days followed by compound administration at 30 mg/kg, po by IHC staining method; format: functional, organism-based
[7] = test system: BCRP; assay: Efflux ratio of apparent permeability across basolateral to apical side to apical to basolateral side in human Caco-2 expressing BCRP cells in presence of novobiocin; format: ADME, cell-based; conditions: Caco-2, with novobiocin (concentration not stated)
[8] = target: Cytochrome P450 2C9 (Homo sapiens, UniProt P11712); assay: Inhibition of human liver microsome CYP2C9 using 4'-hydroxy diclofenac as substrate incubated for 10 mins by LC/MS/MS analysis; format: microsomes
Chain of Cytochrome P450 2C9 (P11712 whole entry): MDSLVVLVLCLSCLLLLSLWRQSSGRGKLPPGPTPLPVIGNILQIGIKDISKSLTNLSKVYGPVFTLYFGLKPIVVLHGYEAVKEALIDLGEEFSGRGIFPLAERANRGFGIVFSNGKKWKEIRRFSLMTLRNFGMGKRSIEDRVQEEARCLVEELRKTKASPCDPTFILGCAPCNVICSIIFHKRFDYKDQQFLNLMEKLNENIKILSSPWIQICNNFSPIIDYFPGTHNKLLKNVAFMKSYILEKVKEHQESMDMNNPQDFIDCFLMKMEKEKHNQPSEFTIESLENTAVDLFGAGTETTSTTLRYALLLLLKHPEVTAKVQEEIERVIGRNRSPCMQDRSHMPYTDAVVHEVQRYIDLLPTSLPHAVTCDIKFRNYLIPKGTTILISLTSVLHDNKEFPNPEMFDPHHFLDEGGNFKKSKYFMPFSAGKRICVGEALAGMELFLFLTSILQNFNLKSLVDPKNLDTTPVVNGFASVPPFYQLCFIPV

[9] = AUC (0 to 12 hrs) in Sprague-Dawley rat plasma at 100 mg/kg, iv measured after 0.083 to 24 hrs by HPLC analysis; format: ADME, organism-based; parameters: dose 100 mg/kg, time 0.083-24 hrs, route iv
[10] = test system: Mus musculus; assay: Neuroprotective activity in MPTP induced C57BL/6J mouse neurodegenerative model treated with MPTP for 7 days followed by compound administration at 10 to 30 mg/kg, po measured on day 6 to 12 upto 180 secs at 25 rpm by rota-rod test; format: functional, organism-based; conditions: dose 10-30 mg/kg, time 6-12 day
[11] = Cmax in Sprague-Dawley rat plasma at 100 mg/kg, po measured after 0.083 to 24 hrs by HPLC analysis; format: ADME, organism-based; parameters: time lower 0.083 hrs, dose 100 mg/kg, time upper 24 hrs, route po
[12] = target: Indoleamine 2,3-dioxygenase 1 (Homo sapiens, UniProt P14902); assay: Inhibition of human IDO1 (12 to 403 aa) expressed in Escherichia coli Transetta (DE3) by nanodrop 2000c spectrophotometric analysis
Chain of Indoleamine 2,3-dioxygenase 1 (P14902 whole entry, the tested form may be a part): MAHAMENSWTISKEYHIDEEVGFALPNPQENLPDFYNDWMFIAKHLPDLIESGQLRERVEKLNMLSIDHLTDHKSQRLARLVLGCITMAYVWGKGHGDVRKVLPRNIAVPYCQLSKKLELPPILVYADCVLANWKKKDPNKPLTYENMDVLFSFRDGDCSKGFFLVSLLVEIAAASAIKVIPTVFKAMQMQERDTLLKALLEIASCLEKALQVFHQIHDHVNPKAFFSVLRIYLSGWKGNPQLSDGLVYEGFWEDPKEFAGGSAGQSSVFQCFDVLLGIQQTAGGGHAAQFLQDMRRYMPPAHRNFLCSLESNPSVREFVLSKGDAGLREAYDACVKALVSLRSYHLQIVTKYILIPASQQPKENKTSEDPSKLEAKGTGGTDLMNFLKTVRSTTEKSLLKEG

[13] = test system: Mus musculus; assay: Neuroprotective activity in MPTP induced C57BL/6J mouse neurodegenerative model assessed as decrease in Iba-1 expression in positive neuron cells in brain striatum treated with MPTP for 7 days followed by compound administration at 30 mg/kg, po by IHC staining method; format: functional, organism-based
[14] = Volume of distribution at steady state in Sprague-Dawley rat plasma at 100 mg/kg, iv measured after 0.083 to 24 hrs by HPLC analysis; format: ADME, organism-based; conditions: time 0.083-24 hrs, read-out: Vdss
[15] = target: CYP2C9 (Homo sapiens, UniProt P11712); assay: Inhibition of human liver microsome CYP2C9 using 4'-hydroxy diclofenac as substrate incubated at 3 uM for 10 mins by LC/MS/MS analysis relative to control; conditions: liver microsomes, probe 4'-hydroxy diclofenac (so in the source)
Chain of CYP2C9 (P11712 whole entry): as the sequence (P11712 whole entry) above

[16] = Unbound fraction in mouse brain by LC-MS/MS analysis relative to control; format: ADME, tissue-based
[17] = test system: MDR1; assay: Apparent permeability in MDCKII expressing MDR1 cells across basolateral to apical side; format: ADME, cell-based, Canis lupus familiaris, MDCK-II; conditions: dog, MDCK-MDR1; read-out: permeability
[18] = test system: BCRP; assay: Apparent permeability in human Caco-2 expressing BCRP cells across basolateral to apical side; format: ADME, cell-based; conditions: read-out: permeability
[19] = test system: BCRP; assay: Permeability in human Caco-2 expressing BCRP cells across basolateral to apical side by measuring ratio of the final amount of the compound in donor and receiver chambers to the initial amount of the compound in the donor chamber in presence of novobiocin relative to control; format: ADME, cell-based; conditions: Caco-2, with novobiocin (concentration not stated)
[20] = test system: BCRP; assay: Efflux ratio of apparent permeability across basolateral to apical side to apical to basolateral side in human Caco-2 expressing BCRP cells; format: ADME, cell-based
[21] = test system: BCRP; assay: Apparent permeability in human Caco-2 expressing BCRP cells across apical to basolateral side in presence of novobiocin; format: ADME, cell-based; conditions: Caco-2, with novobiocin (concentration not stated), read-out: permeability
[22] = test system: Mus musculus; assay: Neuroprotective activity in MPTP induced C57BL/6J mouse neurodegenerative model assessed as normal fiber innervation in brain treated with MPTP for 7 days followed by compound administration at 30 mg/kg, po by IHC staining method; format: functional, organism-based
[23] = AUC (0 to infinity) in Sprague-Dawley rat plasma at 100 mg/kg, po measured after 0.083 to 24 hrs by HPLC analysis; format: ADME, organism-based; parameters: time 0.083-24 hrs, dose 100 mg/kg, route po
[24] = target: Tryptophan 2,3-dioxygenase (Homo sapiens, UniProt P48775); assay: Inhibition of TDO in overexpressing human A-172 cells; format: cell-based
Chain of Tryptophan 2,3-dioxygenase (P48775 whole entry): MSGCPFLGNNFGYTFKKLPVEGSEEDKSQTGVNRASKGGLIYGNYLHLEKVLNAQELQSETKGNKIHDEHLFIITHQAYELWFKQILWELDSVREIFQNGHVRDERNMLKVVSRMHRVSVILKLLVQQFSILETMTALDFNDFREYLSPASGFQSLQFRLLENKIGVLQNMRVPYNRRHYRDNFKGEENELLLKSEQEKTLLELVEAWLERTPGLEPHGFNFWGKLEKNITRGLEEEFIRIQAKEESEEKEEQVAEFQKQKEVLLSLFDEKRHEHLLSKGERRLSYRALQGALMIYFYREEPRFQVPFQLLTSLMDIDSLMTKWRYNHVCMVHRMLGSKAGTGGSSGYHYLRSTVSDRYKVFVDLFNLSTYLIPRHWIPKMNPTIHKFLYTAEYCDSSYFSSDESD

[25] = test system: Mus musculus; assay: Neuroprotective activity in MPTP induced C57BL/6J mouse neurodegenerative model assessed as increase in tyrosine hydroxylase expression in positive neuron cells in brain SNpc treated with MPTP for 7 days followed by compound administration at 30 mg/kg, po by IHC staining method; format: functional, organism-based; conditions: Substantia nigra pars compacta
[26] = Toxicity in MPTP induced C57BL/6J mouse neurodegenerative model assessed as no change in body weight treated with MPTP for 7 days followed by compound administration at 10 to 100 mg/kg, po measured upto 32 days; format: organism-based; conditions: in vivo, 768 h, dose 10-100 mg/kg, time < 32 day
[27] = AUC (0 to infinity) in Sprague-Dawley rat plasma at 100 mg/kg, iv measured after 0.083 to 24 hrs by HPLC analysis; format: ADME, organism-based; parameters: time lower 0.083 hrs, dose 100 mg/kg, time upper 24 hrs, route iv
[28] = test system: MDR1; assay: Efflux ratio of apparent permeability across basolateral to apical side to apical to basolateral side in MDCKII expressing MDR1 cells; format: ADME, cell-based, Canis lupus familiaris, MDCK-II; conditions: dog, MDCK-MDR1
[29] = test system: Mus musculus; assay: In vivo antiinflammatory activity in MPTP induced C57BL/6J mouse neurodegenerative model assessed as decrease in TNF-alpha expression treated with MPTP for 7 days followed by compound administration at 30 mg/kg, po by Western blotting analysis; format: functional, organism-based
[30] = Clearance in Sprague-Dawley rat plasma at 100 mg/kg, iv measured after 0.083 to 24 hrs by HPLC analysis; format: ADME, organism-based; conditions: time 0.083-24 hrs
[31] = Clearance in Sprague-Dawley rat plasma at 100 mg/kg, po measured after 0.083 to 24 hrs by HPLC analysis; format: ADME, organism-based; conditions: time 0.083-24 hrs
[32] = Plasma protein binding in Kunming mouse assessed as binding rate by LC-MS/MS analysis relative to control; format: ADME; conditions: read-out: PPB (converted)
[33] = Oral bioavailability in Sprague-Dawley rat plasma by measuring dose-corrected area under the curve (AUC) oral divided by AUC intravenous at 100 mg/kg measured after 0.083 to 24 hrs by HPLC analysis relative to control; format: ADME, organism-based; conditions: time 0.083-24 hrs

Chain of Receptor-type tyrosine-protein kinase FLT3 (Homo sapiens) (P36888 whole entry): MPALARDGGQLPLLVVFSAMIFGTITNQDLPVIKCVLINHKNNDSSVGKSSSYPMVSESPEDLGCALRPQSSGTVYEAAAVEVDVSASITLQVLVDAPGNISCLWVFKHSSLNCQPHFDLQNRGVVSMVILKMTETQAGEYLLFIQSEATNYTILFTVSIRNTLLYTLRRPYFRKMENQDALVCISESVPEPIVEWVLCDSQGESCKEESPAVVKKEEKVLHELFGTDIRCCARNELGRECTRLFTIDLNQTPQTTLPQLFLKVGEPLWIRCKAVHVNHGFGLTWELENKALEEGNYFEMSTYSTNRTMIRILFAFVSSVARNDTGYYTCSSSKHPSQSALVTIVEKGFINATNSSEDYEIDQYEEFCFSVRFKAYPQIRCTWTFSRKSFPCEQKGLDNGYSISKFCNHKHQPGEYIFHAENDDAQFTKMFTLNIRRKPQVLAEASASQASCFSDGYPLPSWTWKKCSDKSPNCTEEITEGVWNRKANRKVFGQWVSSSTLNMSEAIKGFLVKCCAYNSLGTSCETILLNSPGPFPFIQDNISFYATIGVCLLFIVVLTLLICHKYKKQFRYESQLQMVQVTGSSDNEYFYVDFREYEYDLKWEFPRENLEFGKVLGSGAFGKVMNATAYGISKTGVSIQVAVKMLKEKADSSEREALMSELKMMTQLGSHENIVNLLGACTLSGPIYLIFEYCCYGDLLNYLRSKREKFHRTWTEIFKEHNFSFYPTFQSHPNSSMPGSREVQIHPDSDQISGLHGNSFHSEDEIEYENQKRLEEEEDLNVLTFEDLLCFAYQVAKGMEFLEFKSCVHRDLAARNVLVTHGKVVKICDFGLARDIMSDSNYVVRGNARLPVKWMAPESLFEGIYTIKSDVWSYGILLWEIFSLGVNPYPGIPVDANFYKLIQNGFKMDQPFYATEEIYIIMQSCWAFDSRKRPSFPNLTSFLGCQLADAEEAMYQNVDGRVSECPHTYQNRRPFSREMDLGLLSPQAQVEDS

- inhibition [1]: > 90%
- inhibition [2]: > 90%
- Vdss [5]: 25.45 L/kg
- efflux ratio [7]: 0.51
- IC50 [8]: 9.27 µM
- AUC(0-t) [9]: 30.3 µg·h/mL
- Cmax [11]: 6.87 µg/mL
- IC50 [12]: 0.64 µM
- Vd [14]: 28.1 L/kg
- inhibition at 10 min, 3 µM [15]: 83.4%
- Fu [16]: 0.25%
- Papp B→A [17]: 103 nm/s
- Papp B→A [18]: 104 nm/s
- recovery [19]: 74.9%
- efflux ratio [20]: 0.56
- Papp A→B [21]: 194 nm/s
- AUC(0-inf) [23]: 26.6 µg·h/mL
- EC50 [24]: 3.03 µM
- AUC(0-inf) [27]: 43.8 µg·h/mL
- efflux ratio [28]: 0.77
- clearance [30]: 2.43 L/h/kg
- CL/F [31]: 4.18 L/h/kg
- fraction unbound [32]: 0.0073
- bioavailability [33]: 73.2%
Compound: O[C@@H]1CCCC[C@H]1CNc1cc(Br)cc2[nH]ncc12
- Activity [3]: Active
- Activity [4]: Active
- Activity [6]: Active
- Activity [10]: Active
- Activity [13]: Active
- Activity [22]: Active
- Activity [25]: Active
- Activity [26]: Non-Toxic
- Activity [29]: Active
